In patent US12649723B2, “Carbonohydrazonoyl dicyanide compounds comprising 2 or more aryl or heteroaryl connected via linker and use thereof” (KOREA INSTITUTE OF SCIENCE AND TECHNOLOGY, priority 2020, dated 2026):
pIC50: −log10 of the molar value.

How the values were obtained:
[1] = Liver microsome stability; type: in vitro ADME, dog; settings: amount of substrate remaining; compound 1 μM, 30 minutes, 37° C., NADPH
Protocol: The stability of liver microsomes due to the compounds prepared according to Examples 1 to 175 was confirmed. Specifically, four types of liver microsomes (human, dog, rat, and mouse, each 0.25 mg/mL), a 0.1 M phosphate buffer solution (pH 7.4), and each of the compounds at a concentration of 1 μM were mixed and pre-cultured at 37° C. for 5 minutes and further cultured at 37° C. for 30 minutes together with an NADPH generation system solution added thereto. Thereafter, the reaction was terminated by adding an acetonitrile solution containing an internal standard material (chloropropamide) and centrifuged for 5 minutes (14,000 rpm, 4° C.), and then a supernatant was injected into an LC-MS/MS system for analysis of substrate drugs to thereby evaluate metabolic stability due to 8 types of compounds.
The amount of the substrate remaining after the reaction was analyzed using the Shimadzu Nexera XR system and TSQ Vantage (Thermo). In an HPLC column, Kinetex XB-C18 (2.1 mm×100 mm, particle size of 2.6 μm; Phenomenex, USA) was used, and mobile phases were (A) distilled water containing 0.1% formic acid and (B) acetonitrile containing 0.1% formic acid. Analyst software (version 1.6.3) and Xcalibur (version 1.6.1) were used for data analysis.

CYP2D6 = molecular target: T1, CYP2D6 (Homo sapiens, UniProt P10635); assay: Inhibitory effect on CYP coenzyme activity, human liver microsomes; type: in vitro ADME; settings: compound 10 μM; human liver microsomes 0.25 mg/mL; substrate dextromethorphan; 15 minutes
T1 construct: human liver microsomes (0.25 mg/mL); from tissue; host or cells: human liver microsomes
T1 sequence (P10635 whole entry): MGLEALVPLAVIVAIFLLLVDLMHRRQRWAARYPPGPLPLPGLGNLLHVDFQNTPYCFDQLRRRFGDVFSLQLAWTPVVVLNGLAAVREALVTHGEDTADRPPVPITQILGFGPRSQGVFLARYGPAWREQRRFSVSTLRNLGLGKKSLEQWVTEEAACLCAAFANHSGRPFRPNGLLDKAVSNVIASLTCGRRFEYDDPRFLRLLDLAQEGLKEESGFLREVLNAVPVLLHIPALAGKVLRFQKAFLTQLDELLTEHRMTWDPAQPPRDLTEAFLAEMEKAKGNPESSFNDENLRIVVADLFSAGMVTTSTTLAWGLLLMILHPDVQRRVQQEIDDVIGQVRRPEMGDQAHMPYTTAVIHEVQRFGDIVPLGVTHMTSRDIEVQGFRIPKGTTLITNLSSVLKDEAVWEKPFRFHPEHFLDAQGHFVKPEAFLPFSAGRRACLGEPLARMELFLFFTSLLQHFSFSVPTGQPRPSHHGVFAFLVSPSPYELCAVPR
Protocol: (§1) The inhibitory effects of the compounds prepared according to Examples 1 to 175 on CYP coenzyme activity were identified. Specifically, human liver microsomes (0.25 mg/mL), a 0.1 M phosphate buffer solution (pH 7.4), a substrate drug cocktail of five types of drug metabolism enzymes (50 μM phenacetin, 10 μM diclofenac, 100 μM S-mephenytoin, 5 μM dextromethorphan, and 2.5 μM midazolam), and the compound at a concentration of 0 μM or 10 μM were mixed and pre-cultured at 37° C. for 5 minutes, and then further cultured at 37° C. for 15 minutes together with an NADPH generation system solution added thereto. Thereafter, the reaction was terminated by adding an acetonitrile solution containing an internal standard material (terfenadine) and centrifuged for 5 minutes (14,000 rpm, 4° C.), and then a supernatant was injected into an LC-MS/MS system for simultaneous analysis of metabolites of the substrate drugs to thereby evaluate the inhibitory effects on drug metabolism.
(§2) Metabolites of each CYP coenzyme indicator drug generated through the reaction were analyzed using the Shimadzu Nexera XR system and TSQ Vantage (Thermo). In an HPLC column, Kinetex C18 (2.1 mm×100 mm, 2.6 μm, particle size; Phenomenex, USA) was used, and mobile phases were (A) distilled water containing 0.1% formic acid and (B) acetonitrile containing 0.1% formic acid, and a gradient program shown in Table 3 was applied thereto.
(§3) The generated metabolites were quantified using a multiple reaction monitoring (MRM) quantification mode, and Xcalibur (version 1.6.1) was used for data analysis. Inhibitory effects of the novel compound prepared according to the examples of the present invention on CYP coenzyme activity are shown in Table 4 below.

CYP2C9 = molecular target: T2, CYP2C9 (Homo sapiens, UniProt P11712); assay: as above; type: in vitro ADME; settings: compound 10 μM; human liver microsomes 0.25 mg/mL; substrate diclofenac; 15 minutes
T2 construct: human liver microsomes (0.25 mg/mL); from tissue; host or cells: human liver microsomes
T2 sequence (P11712 whole entry): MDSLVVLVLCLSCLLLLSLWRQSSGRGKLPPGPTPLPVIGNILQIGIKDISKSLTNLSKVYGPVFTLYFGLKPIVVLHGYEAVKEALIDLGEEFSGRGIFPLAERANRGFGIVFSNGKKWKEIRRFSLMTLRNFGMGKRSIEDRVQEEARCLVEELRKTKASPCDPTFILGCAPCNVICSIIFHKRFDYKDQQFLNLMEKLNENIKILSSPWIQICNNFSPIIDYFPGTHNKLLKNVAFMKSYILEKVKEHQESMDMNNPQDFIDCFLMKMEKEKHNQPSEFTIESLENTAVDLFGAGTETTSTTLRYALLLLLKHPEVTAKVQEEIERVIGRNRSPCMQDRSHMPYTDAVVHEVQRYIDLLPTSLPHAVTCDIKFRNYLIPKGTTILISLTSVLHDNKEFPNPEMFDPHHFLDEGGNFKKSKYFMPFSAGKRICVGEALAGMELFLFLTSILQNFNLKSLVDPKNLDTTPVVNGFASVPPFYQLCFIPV
Protocol: as §1, §2, §3

CYP2C19 = molecular target: T3, CYP2C19 (Homo sapiens, UniProt P33261); assay: as above; type: in vitro ADME; settings: compound 10 μM; human liver microsomes 0.25 mg/mL; substrate S-mephenytoin; 15 minutes
T3 construct: human liver microsomes (0.25 mg/mL); from tissue; host or cells: human liver microsomes
T3 sequence (P33261 whole entry): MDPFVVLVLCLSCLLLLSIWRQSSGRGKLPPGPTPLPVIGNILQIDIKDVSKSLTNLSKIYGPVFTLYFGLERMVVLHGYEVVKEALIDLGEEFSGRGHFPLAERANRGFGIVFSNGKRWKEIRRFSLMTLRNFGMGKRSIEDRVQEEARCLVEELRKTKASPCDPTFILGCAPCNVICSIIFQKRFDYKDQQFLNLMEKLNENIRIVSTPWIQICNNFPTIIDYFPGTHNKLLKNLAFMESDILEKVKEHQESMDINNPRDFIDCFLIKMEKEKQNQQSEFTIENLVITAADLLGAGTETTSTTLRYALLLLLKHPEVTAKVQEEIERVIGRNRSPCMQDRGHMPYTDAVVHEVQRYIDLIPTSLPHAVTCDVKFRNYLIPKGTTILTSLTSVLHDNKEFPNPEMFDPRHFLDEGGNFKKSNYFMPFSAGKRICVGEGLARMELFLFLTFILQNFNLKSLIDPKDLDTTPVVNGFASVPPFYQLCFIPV
Protocol: as §1, §2, §3

CYP1A2 = molecular target: T4, CYP1A2 (Homo sapiens, UniProt P05177); assay: as above; type: in vitro ADME; settings: compound 10 μM; human liver microsomes 0.25 mg/mL; substrate phenacetin; 15 minutes
T4 construct: human liver microsomes (0.25 mg/mL); from tissue; host or cells: human liver microsomes
T4 sequence (P05177 1-516): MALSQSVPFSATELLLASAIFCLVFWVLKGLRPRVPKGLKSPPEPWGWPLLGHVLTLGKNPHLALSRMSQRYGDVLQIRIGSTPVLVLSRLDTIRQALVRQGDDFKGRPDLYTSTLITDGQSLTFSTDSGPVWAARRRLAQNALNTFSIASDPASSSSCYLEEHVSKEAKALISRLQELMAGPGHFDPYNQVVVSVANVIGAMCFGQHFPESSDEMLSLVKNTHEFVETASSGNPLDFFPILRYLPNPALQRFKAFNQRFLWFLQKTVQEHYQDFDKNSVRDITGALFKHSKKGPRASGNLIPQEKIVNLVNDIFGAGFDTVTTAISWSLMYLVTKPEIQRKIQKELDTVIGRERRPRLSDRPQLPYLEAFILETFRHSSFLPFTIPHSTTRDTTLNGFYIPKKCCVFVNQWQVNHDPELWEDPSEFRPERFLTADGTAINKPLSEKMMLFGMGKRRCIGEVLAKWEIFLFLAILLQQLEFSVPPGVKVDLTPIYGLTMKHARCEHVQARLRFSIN
Protocol: as §1, §2, §3

CYP3A4 = molecular target: T5, CYP3A4 (Homo sapiens, UniProt P08684); assay: as above; type: in vitro ADME; settings: compound 10 μM; human liver microsomes 0.25 mg/mL; substrate midazolam; 15 minutes
T5 construct: human liver microsomes (0.25 mg/mL); from tissue; host or cells: human liver microsomes
T5 sequence (P08684 whole entry): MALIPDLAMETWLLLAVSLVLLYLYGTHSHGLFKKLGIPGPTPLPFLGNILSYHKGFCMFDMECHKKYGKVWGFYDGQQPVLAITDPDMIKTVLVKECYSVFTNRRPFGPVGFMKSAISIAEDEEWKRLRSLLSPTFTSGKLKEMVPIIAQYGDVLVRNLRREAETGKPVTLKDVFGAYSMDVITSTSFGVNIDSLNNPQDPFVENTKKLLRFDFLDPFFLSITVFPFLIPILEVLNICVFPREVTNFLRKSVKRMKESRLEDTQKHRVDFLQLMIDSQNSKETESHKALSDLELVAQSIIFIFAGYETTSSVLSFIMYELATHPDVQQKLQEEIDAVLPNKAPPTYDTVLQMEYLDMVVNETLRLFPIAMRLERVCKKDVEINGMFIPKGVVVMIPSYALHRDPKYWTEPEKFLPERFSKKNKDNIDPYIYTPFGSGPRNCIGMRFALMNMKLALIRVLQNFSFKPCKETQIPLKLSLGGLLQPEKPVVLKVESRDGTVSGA
Protocol: as §1, §2, §3

tau protein = molecular target: T6, tau protein (Homo sapiens, UniProt P10636); assay: Tau-BiFC cell model: inhibition of tau protein aggregation; type: cell-based; settings: for remaining activity at 10 µM: 48 h, compound 10 μM, BiFC fluorescence, Forskolin-only group = 100% tau protein-aggregated state, read-out: Response (% @10 μM); for pIC50: Tau BiFC in cells, with Forskolin 30 μM, 48 hours
T6 construct: fused on or other part: Split fluorescent-protein halves for BiFC are fused to tau; In the published tau-BiFC line these are Venus VN173 and VC155
T6 sequence (P10636 2-441 isoform P10636-8 limits assumed): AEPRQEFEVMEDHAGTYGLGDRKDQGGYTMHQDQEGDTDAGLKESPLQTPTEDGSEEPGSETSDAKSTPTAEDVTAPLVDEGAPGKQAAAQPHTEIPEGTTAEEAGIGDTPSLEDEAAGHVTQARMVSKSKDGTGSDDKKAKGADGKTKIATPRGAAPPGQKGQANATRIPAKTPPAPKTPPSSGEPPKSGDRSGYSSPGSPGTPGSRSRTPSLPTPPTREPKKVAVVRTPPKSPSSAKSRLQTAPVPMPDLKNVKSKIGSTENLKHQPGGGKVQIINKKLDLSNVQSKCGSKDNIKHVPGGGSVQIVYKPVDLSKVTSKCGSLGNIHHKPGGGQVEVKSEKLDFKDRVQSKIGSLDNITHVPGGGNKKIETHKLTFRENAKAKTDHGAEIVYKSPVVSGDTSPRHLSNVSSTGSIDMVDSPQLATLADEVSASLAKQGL
Procedure, shortened: (§4)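 Tau-BiFC cells were exposed for 48 h to compound (1, 3, 10 μM for screening; 0.03–30 μM for dose-response) plus 30 μM Forskolin to induce aggregation. BiFC fluorescence was normalised to Forskolin-only minus untreated controls, with IC50 from nonlinear regression. Viability was Hoechst-stained nuclei counts relative to Forskolin-only wells.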

[2] = Liver microsome stability; type: in vitro ADME, mouse; settings: amount of substrate remaining; compound 1 μM, 30 minutes, 37° C., NADPH
Procedure, shortened: (§5)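 Human, dog, rat and mouse liver microsomes (0.25 mg/mL) with 1 μM compound in 0.1 M phosphate buffer pH 7.4, preincubated 5 min at 37° C, then incubated 30 min at 37° C with NADPH-generating system. Reaction stopped with acetonitrile containing internal standard; remaining parent quantified by LC-MS/MS.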

[3] = Liver microsome stability; type: in vitro ADME, human; settings: amount of substrate remaining; compound 1 μM, 30 minutes, 37° C., NADPH
Procedure, shortened: as §5

Tau-BiFC cells = assay: Cell viability (cytotoxicity) in tau-BiFC cells, count of stained nuclei; type: cell-based; settings: compound 10 μM; Forskolin-only group = 100% cell viability
Procedure, shortened: as §4

[4] = Liver microsome stability; type: in vitro ADME, rat; settings: amount of substrate remaining; compound 1 μM, 30 minutes, 37° C., NADPH
Procedure, shortened: as §5

SMILES | Dog (%) [1] [%] | CYP2D6 (CYP2D6) | CYP2C9 (CYP2C9) | CYP2C19 (CYP2C19) | CYP1A2 (CYP1A2) | CYP3A4 (CYP3A4) | remaining activity at 10 µM (tau protein) [%] | pIC50 (tau protein) | Mouse (%) [2] [%] | Human (%) [3] [%] | Cell viability (% @10 μM) (Tau-BiFC cells) [%] | Rat (%) [4] [%]
Cc1cnc(C(=O)Nc2ccc(NN=C(C#N)C#N)c(F)c2)cn1 [Compound 3, (2-fluoro-4-(5-methylpyrazine-2-carboxamido)phenyl)carbonohydrazonoyl dicyanide] | 75.4 | 83.6 | 61.9 | 78.2 | 85.6 | 80.8 | 0 | 7.52 | 46.1 | 95.7 | 62.1 | 72.6
Cc1cnc(C(=O)Nc2ccc(NN=C(C#N)C#N)c(C)c2)cn1 [Compound 6, (2-methyl-4-(5-methylpyrazine-2-carboxamido)phenyl)carbonohydrazonoyl dicyanide] | >100 | 75.7 | 38 | 64.8 | 85.2 | 62.2 | 43.9 |  | 74.8 | 77.5 | 61.3 | 88.4
N#CC(C#N)=NNc1ccc(NC(=O)c2ccc(F)cc2)nc1 [Compound 16, (6-(4-fluorobenzamido)pyridin-3-yl)carbonohydrazonoyl dicyanide] | 59.5 | 80.8 | 40.3 | 78.6 | 71.4 | 86.9 | 0 | 6.96 | 67.3 | 91.6 | 66.2 | 61
Cc1cc(F)cc(C(=O)Nc2ccc(NN=C(C#N)C#N)cn2)c1 [Compound 19, (6-(3-fluoro-5-methylbenzamido)pyridin-3-yl)carbonohydrazonoyl dicyanide] | 78.8 | 73 | 14.6 | 73.1 | 55.1 | 76.5 | 0 | 6.57 | 62.3 | 84.8 | 119.1 | 51.4
Cc1cccc(C(=O)Nc2ccc(NN=C(C#N)C#N)cn2)c1F [Compound 20, (6-(2-fluoro-3-methylbenzamido)pyridin-3-yl)carbonohydrazonoyl dicyanide] | >100 | 75.8 | 22.3 | 72 | 69.4 | 76.1 | 0 | 6.74 | 68.3 | 91.9 | 110.4 | 33.7
N#CC(C#N)=NNc1ccc(NC(=O)c2ccc(C(F)(F)F)cc2)nc1 [Compound 27, (6-(4-(trifluoromethyl)benzamido)pyridin-3-yl)carbonohydrazonoyl dicyanide] | 3.6 | 76 | 23.7 | 78.3 | 76.8 | >100 | 0 | 6.43 | 5.4 | 86.9 | 122 | 8.8
N#CC(C#N)=NNc1ccc(NC(=O)c2cccs2)nc1 [Compound 30, (6-(thiophene-2-carboxamido)pyridin-3-yl)carbonohydrazonoyl dicyanide] | 84.7 | 89.9 | 62.9 | 81.5 | 83.9 | 95.2 | 0 | 7.10 | 70.7 | 94.8 | 145 | 72.4
